Consider three compounds from patent US12275731B2, “Azaindole inhibitors of wild-type and mutant forms of LRRK2” (DANA-FARBER CANCER INSTITUTE, INC., priority 2018, dated 2025).

Common to all, as to experiment: KinomeScan profiling
Common to all, as to type: binding

One experiment has as its target T1, GAK (Homo sapiens, UniProt O14976).
T1 sequence (O14976 1-1311): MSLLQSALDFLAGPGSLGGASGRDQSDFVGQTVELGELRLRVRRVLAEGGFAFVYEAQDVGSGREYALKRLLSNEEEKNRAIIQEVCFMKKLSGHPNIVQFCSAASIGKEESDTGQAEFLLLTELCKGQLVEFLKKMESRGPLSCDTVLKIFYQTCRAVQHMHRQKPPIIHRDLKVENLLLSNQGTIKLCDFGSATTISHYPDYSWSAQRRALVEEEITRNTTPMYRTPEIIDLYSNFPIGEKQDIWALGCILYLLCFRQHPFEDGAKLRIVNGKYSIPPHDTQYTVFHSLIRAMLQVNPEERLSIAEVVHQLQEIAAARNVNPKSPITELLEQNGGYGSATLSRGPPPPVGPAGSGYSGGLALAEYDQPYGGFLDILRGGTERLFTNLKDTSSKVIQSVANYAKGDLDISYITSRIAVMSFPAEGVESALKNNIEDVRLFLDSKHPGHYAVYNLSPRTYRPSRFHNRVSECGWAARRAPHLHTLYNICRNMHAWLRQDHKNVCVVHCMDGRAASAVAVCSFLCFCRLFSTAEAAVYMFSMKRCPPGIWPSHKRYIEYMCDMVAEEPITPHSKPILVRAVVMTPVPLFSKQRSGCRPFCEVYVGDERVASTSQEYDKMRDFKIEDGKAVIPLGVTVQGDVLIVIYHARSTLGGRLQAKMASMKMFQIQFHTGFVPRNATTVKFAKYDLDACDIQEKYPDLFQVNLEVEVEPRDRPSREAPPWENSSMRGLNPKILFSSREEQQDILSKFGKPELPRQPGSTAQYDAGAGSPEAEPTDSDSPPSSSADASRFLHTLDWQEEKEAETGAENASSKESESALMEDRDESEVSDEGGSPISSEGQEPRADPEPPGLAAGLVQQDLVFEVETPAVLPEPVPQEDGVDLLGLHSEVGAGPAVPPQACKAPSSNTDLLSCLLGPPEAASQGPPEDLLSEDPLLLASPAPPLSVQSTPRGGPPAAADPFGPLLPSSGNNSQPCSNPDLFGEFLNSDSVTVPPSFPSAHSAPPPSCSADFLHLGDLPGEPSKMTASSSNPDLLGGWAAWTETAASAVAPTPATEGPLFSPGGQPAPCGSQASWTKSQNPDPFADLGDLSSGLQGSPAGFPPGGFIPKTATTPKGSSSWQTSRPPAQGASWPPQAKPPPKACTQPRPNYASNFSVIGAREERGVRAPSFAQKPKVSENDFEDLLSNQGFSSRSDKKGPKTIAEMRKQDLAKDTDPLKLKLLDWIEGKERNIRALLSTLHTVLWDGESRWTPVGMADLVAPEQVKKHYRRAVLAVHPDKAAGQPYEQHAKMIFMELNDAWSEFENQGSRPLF
Conditions: read-out: % control. The method in brief: (§1)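 Luminescence (RLU) was converted to percent of control, with DMSO set as 100% and a reference compound as 0%. Test compounds were run at 1 μM against 468 kinases. Kinases showing below 35% of control were scored as bound.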

The target of the next experiment is T2, MST2 (Homo sapiens, UniProt Q13188).
T2 sequence (Q13188 1-491): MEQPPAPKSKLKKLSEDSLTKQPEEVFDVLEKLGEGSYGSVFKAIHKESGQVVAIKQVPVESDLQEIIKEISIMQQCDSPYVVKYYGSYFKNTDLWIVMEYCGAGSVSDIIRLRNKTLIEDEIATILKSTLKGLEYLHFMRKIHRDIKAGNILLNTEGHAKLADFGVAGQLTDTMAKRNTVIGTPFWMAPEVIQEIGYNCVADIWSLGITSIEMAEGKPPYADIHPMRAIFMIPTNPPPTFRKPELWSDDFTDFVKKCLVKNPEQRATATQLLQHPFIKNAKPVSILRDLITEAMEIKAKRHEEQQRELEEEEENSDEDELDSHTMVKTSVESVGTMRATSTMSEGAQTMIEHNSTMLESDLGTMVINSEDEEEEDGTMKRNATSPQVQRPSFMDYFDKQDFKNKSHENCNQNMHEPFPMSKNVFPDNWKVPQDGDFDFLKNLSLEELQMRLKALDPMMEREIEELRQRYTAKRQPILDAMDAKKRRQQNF
Conditions: MST2, 1 μM; read-out: % control. The method, boiled down: as §1

The target in a further experiment is PRKCD (Homo sapiens, UniProt Q05655). The following applies: read-out: % control. The method in brief:
as §1

Another experiment deals with CAMK1D (Homo sapiens, UniProt Q8IU85). The following applies: read-out: % control. The method in brief: as §1
The next experiment addresses T3, SLK (Homo sapiens, UniProt Q9H2G2).
T3 construct: purchased KinomeScan® (panel service)
Conditions: read-out: % control. The method, boiled down: as §1

For another experiment, the target named is TNIK (Homo sapiens, UniProt Q9UKE5). The following applies: read-out: % control. The method in brief: as §1
TNIK, sequence (Q9UKE5 whole entry): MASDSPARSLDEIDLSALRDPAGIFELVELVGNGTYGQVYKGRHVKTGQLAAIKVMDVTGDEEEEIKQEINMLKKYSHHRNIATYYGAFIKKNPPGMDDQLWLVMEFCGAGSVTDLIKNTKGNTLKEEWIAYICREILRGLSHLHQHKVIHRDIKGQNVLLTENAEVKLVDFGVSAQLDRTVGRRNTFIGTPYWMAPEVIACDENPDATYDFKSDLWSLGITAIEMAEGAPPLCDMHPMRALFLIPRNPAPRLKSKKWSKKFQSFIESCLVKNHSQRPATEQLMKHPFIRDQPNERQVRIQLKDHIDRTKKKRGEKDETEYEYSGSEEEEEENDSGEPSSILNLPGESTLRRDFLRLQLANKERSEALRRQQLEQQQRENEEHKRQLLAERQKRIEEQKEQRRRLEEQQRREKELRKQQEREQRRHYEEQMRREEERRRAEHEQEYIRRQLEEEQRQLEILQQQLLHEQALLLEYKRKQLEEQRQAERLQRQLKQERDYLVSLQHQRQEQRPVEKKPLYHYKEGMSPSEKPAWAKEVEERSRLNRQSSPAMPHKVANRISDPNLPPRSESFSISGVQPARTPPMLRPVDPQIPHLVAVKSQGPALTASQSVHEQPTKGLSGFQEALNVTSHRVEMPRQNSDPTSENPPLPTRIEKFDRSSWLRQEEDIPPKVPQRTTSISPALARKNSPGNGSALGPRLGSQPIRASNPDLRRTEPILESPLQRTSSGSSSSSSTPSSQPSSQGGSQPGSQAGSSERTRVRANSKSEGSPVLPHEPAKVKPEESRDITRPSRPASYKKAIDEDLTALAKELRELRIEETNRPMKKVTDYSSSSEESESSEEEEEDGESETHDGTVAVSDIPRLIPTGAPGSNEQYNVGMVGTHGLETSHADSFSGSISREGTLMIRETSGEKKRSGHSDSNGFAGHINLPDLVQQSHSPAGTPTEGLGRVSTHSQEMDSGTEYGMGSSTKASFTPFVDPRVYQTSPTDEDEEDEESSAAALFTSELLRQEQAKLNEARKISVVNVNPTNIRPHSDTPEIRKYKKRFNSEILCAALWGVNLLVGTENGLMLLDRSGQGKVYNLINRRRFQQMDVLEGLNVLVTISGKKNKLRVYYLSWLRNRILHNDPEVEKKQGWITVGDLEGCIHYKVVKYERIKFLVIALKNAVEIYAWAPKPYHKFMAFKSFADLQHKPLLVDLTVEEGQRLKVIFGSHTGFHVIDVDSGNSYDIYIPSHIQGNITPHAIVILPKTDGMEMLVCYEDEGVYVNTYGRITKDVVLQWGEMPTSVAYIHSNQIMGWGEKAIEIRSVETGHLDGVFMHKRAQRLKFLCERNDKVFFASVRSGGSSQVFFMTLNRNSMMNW

PRKCD, sequence (Q05655 whole entry): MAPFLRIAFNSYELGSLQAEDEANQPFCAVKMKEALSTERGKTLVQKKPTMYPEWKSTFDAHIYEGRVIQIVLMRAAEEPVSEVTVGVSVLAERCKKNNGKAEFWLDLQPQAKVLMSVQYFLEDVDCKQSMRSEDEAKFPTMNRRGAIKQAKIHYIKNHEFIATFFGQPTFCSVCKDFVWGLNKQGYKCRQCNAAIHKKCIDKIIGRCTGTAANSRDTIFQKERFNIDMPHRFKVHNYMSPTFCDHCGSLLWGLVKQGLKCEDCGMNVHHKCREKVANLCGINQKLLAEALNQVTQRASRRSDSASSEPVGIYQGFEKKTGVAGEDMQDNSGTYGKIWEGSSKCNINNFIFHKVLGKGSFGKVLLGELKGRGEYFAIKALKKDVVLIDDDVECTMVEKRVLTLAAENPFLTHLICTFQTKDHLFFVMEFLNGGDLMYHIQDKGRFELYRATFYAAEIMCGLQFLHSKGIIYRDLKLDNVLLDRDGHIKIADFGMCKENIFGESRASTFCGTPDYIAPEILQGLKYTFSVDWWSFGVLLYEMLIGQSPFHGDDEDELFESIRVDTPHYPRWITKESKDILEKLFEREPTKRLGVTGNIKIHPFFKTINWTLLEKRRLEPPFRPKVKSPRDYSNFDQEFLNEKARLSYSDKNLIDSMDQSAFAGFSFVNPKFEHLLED
CAMK1D, sequence (Q8IU85 whole entry): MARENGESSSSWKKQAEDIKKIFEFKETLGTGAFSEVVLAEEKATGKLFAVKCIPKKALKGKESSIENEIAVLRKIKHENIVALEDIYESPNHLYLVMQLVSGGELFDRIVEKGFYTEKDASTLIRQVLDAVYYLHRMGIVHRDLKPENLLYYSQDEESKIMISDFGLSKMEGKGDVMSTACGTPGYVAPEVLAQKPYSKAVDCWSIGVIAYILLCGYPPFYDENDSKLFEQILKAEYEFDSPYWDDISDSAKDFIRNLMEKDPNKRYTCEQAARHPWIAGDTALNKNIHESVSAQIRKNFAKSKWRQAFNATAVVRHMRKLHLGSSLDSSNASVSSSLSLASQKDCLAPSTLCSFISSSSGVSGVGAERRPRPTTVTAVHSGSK
T3 sequence (Q9H2G2 whole entry): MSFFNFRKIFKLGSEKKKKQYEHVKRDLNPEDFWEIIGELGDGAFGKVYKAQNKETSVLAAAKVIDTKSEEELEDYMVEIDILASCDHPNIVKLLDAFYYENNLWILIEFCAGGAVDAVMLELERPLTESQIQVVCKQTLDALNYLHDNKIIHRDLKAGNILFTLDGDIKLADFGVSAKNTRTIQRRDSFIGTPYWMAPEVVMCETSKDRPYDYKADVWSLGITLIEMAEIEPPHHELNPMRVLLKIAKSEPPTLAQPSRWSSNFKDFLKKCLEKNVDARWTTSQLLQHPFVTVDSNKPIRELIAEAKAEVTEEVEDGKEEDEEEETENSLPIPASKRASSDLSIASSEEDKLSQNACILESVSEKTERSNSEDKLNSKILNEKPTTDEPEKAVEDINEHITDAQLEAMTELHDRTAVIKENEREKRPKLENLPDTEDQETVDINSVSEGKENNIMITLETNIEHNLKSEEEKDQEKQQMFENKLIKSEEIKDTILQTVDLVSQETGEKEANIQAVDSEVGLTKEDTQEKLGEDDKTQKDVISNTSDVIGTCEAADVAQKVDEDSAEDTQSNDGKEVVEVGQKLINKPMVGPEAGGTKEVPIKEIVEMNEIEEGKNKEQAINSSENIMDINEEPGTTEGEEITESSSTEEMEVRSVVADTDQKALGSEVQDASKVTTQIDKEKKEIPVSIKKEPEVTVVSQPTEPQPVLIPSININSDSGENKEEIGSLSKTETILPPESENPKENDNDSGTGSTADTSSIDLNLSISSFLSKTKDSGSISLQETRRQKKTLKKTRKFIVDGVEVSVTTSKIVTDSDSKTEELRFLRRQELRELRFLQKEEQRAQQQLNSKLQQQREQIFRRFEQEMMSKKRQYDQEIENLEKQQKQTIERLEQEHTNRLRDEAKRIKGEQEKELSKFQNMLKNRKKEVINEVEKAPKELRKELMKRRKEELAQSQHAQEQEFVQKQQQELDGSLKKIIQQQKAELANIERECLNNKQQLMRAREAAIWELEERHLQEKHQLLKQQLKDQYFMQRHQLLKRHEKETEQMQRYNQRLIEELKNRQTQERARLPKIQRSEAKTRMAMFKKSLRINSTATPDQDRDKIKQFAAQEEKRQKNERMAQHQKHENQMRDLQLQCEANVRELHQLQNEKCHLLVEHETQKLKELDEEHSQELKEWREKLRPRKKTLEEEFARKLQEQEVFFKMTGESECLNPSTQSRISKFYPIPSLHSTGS

As to `CNc1c(-c2cnn([C@H]3CCN(C(C)=O)C[C@@H]3F)c2)cnc2[nH]cc(Cl)c12` [Compound 77, 1-((3S,4S)-4-(4-(3-chloro-4-(methylamino)-1H-pyrrolo[2,3-b]pyridin-5-yl)-1H-pyrazol-1-yl)-3-fluoropiperidin-1-yl)ethan-1-one], the remaining binding at 1 µM was 100% on GAK; 100% on MST2; 100% at PRKCD; 85% at CAMK1D; 86% on SLK; 29% at TNIK.

Turning to `CNc1c(-c2ccc(C(=O)N3CCC(N4CCOCC4)CC3)cc2)cnc2[nH]cc(Cl)c12` [Compound 96, (4-(3-chloro-4-(methylamino)-1H-pyrrolo[2,3-b]pyridin-5-yl)phenyl)(4-morpholinopiperidin-1-yl)methanone], the remaining binding at 1 µM on GAK was 99%; at MST2, 99%; at PRKCD, 94%; at CAMK1D, 69%; at SLK, 68%; at TNIK, 14%.

In the case of `O=C(c1ccc(-c2cnc3[nH]cc(Cl)c3c2NC2CCCC2)cc1)N1CCC(N2CCOCC2)CC1` [Compound 101, (4-(3-chloro-4-(cyclopentylamino)-1H-pyrrolo[2,3-b]pyridin-5-yl)phenyl)(4-morpholinopiperidin-1-yl)methanone], the remaining binding at 1 µM was determined as 99% on GAK; 74% at MST2; 88% at PRKCD; 100% at CAMK1D; 78% at SLK; 89% on TNIK.
